Measurements from publication PMC5904360, “Soluble N-Ethylmaleimide-Sensitive Factor Attachment Protein Receptor-Derived Peptides for Regulation of Mast Cell Degranulation” (Frontiers in Immunology, 2018).

What was measured:
[1] = target: T1, SN23-Syn4-Vp8 SNARE complex (Rattus norvegicus, UniProt O70377+Q08850+Q9WUF4); test: SNARE-driven membrane fusion (total lipid mixing) assay with proteoliposomes; format: biochemical; conditions: for inhibition of membrane fusion (lipid mixing): inhibitor applied to T-vesicles, T:V 9:1, 37°C, NBD dequenching, Vp2S/Vp8S at 10 µM, three independent experiments (Figure 3B-D); for inhibition of membrane fusion, peptide added before preincubation: peptide added before preincubation of T- and V-liposomes at 4°C overnight (Figure 4A)
T1 construct: Syn4 (amino acids 1–298); SNAP-23 (amino acids 1–210); VAMP8 (amino acids 1–100); GST (N, cleaved yes); made in house; host or cells: Escherichia coli Rosetta(DE3)pLysS
T1 sequence (Q08850 1-298): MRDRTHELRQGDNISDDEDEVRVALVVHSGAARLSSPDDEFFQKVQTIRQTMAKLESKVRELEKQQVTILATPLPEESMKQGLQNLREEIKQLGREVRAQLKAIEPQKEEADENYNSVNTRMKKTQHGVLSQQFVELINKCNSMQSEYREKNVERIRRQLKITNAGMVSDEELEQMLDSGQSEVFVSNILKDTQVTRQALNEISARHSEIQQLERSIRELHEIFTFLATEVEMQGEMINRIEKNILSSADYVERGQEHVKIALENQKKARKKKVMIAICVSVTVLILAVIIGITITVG
T1 sequence (O70377 1-210): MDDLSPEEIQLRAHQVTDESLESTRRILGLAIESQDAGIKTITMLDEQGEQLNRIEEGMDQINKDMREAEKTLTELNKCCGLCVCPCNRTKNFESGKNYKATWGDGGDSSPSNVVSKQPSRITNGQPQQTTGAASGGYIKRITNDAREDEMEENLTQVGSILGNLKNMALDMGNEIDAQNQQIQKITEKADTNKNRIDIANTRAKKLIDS
T1 sequence (Q9WUF4 1-100): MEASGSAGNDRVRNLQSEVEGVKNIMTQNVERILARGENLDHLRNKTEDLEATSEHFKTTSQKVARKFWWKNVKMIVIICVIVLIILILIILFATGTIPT
Excerpt: Total RNA was obtained from RBL-2H3 cells using TRIzol® Reagent (#15596026, Invitrogen, Carlsbad, CA, USA) and served as a template for cDNA synthesis with M-MLV reverse transcriptase (M1705, Promega, Madison, WI, USA) according to the manufacturer’s protocol. The cDNAs amplified for rat Syn4, SNAP-23, VAMP2, VAMP4, VAMP7, and VAMP8 using each primer pair ([4]), were cloned into the pGEX-4T 1 vector. The mast cell SNARE proteins [Syn4 (amino acids 1–298), SNAP-23 (amino acids 1–210), full-length VAMP2 (VpF, amino acids 1–116), VAMP4 (amino acids 1–141), and VAMP8 (amino acids 1–100)] were expressed in Escherichia coli Rosetta(DE3)pLysS (#70956, Novagen, Darmstadt, Germany) and purified as glutathione-S-transferase-tagged fusion proteins as reported previously ([8]).
To prepare the unilamellar liposomes, a 50-mM lipid mixture of palmitoyl-2-oleoylphosphatidylcholine (POPC) (#850457, Avanti Polar Lipids, Alabaster, AL, USA):1,2-dioleoyl-phosphatidylserine (DOPS) (#840035, Avanti Polar Lipids) at 65:35 mol% was dried in a glass tube under a gentle stream of nitrogen gas and then exposed to a vacuum overnight. The resultant lipid film was resuspended in dialysis buffer (25 mM HEPES and 100 mM KCl, pH 7.4) by vortexing, followed by an extrusion step with polycarbonate membrane filters having a pore size of 100 nm (#610005, Avanti Polar Lipids). To prepare proteoliposomes, binary T-SNAREs, which were pre-formed by mixing Syn4 and SNAP-23 at room temperature for 60 min, were incubated with 50 mM unilamellar liposomes for 15 min at the same temperature, resulting in a 50:1 lipid/protein molar ratio ([9]).
For the preparation of V-SNARE proteoliposomes, a 10-mM premixed lipid solution [POPC:DOPS:N-(7-nitro-2-1,3-benzoxadiazol-4-yl (NBD))-phosphatidylserine (#810198, Avanti Polar Lipids):[…] (#810150, Avanti Polar Lipids) = 62:35:1.5:1.5 (molar ratio)] was used for the preparation of fluorescent liposomes in the same manner as above. The prepared liposomes were then mixed with VAMP2 for 15 min at room temperature. The liposome/protein mixture was diluted twice to bring the concentration of n-octyl glucoside (O8001, Sigma-Aldrich) below the critical micelle concentration. After overnight dialysis against 1L dialysis buffer at 4°C to remove the detergent, SM-2 bio-beads (#1523920, Bio-Rad Laboratories, Hercules, CA, USA) were added to the sample to remove any remaining n-octyl glucoside. The solution was then centrifuged at 10,000 × g to remove the protein/lipid aggregates, and the final lipid concentrations of both the T- and V-liposomes were adjusted to 1 mM with a lipid-to-protein ratio of 50:1.
A total lipid mixing assay using the T- and V-liposomes was performed as described previously with minor modifications ([8]). Briefly, peptide inhibitors were applied to the T-vesicles at the indicated concentrations and then the T-vesicles were mixed with the V-vesicles in a 384-well plate for the initiation of fusion, with a T- to V-vesicle volume ratio of 9:1. The fusion was monitored using the dequenching of NBD fluorescence signal (excitation 465 nm/emission 530 nm). After at least 80 min of fusion, the maximum NBD signal was obtained by adding 0.1% Triton X-100™. All the lipid-mixing experiments were performed at 37°C.

[2] = test system: complexes containing both Syn4 and SN23; test: Co-immunoprecipitation of SNARE complexes in activated RBL-2H3 cells, anti-SNAP-23 blot; format: cell-based, rat; conditions: peptides added to the medium after A23187 pretreatment; co-IP, blot anti-SNAP-23 (Figure 4C)
Description: Lysates of RBL-2H3 cells (0.5–1 × 10^6 cells), which were obtained by the addition of 1 mL lysis buffer (50 mM Tris–HCl, 150 mM NaCl, 1% Triton X-100™, 1 mM EDTA, pH 7.5) supplemented with a protease inhibitor cocktail (Calbiochem®, Merck Millipore, Billerica, MA, USA), were centrifuged at 13,000 g at 4°C to remove cell debris and precleared with 100 µL protein G Sepharose® (GE Healthcare) for 2 h at 4°C. The precleared lysates were incubated with antibodies against SNARE proteins (Syn4, SNAP-23, VAMP2, and VAMP8) for 2 h at 4°C for binding, and then the antibody–antigen complexes were precipitated by incubation with a protein G slurry overnight with constant shaking. After an extensive washing step with lysis buffer, an immunoblotting analysis was performed for the precipitates. The immunoprecipitated proteins and cell lysates were electrophoresed on 12% sodium dodecyl sulfate-polyacrylamide gel electrophoresis gels and then transferred to nitrocellulose blotting membranes (GE Healthcare). After blocking the membranes in TBST (10 mM Tris–HCl, 150 mM NaCl, and 0.05% Tween® 20, pH 8) containing 0.5% BSA and 5% skim milk for 1 h at room temperature, primary anti-SNAP-23 antibody (1:1,000 dilution) in TBST supplemented with 1% BSA and 0.01% sodium azide was added and incubated at 4°C overnight. […]

Sequence | inhibition of membrane fusion (lipid mixing) [1] | inhibition of membrane fusion, peptide added before preincubation [1] | amount of complexes containing both Syn4 and SN23 (binary Syn4-SN23 and ternary complexes) [2]
EDEMEENLTQVGSILGN [SC23N, 17-mer peptide, N-terminal region of SNAP-23 SNARE motif SC23] | inhibited membrane fusion by both the SN23-Syn4-Vp2 and SN23-Syn4-Vp8 complexes | inhibited the membrane fusion induced by both SN23-Syn4-Vp2 and SN23-Syn4-Vp8 | most dramatically reduced
LQSEVEGVKNIMTQNVE [Vp8N, 17-mer peptide, N-terminal region of VAMP8 SNARE motif] | specific to the SN23-Syn4-Vp8 complex | inhibited the membrane fusion driven only by their cognate SNARE complexes | 
SARHSEIQQLERTIREL [Syn4N, 17-mer peptide, N-terminal region of syntaxin 4 SNARE motif] | inhibited membrane fusion by both the SN23-Syn4-Vp2 and SN23-Syn4-Vp8 complexes | inhibited the membrane fusion induced by both SN23-Syn4-Vp2 and SN23-Syn4-Vp8 | most dramatically reduced
